Source: ChEMBL document CHEMBL1268919, “Berberine derivatives, with substituted amino groups linked at the 9-position, as inhibitors of acetylcholinesterase/butyrylcholinesterase” (Bioorg Med Chem Lett, 2010)
Calls of active or inactive are those of the source. The calls are words filed in the database; no cut-off is given here.

Experiments:
Acetylcholinesterase = Acetylcholinesterase (Electrophorus electricus, UniProt O42275)
Description: Inhibition of electric eel AChE after 15 mins by Ellman's method using acetylcholine as substrate

[1] = molecular target: Acetylcholinesterase (Electrophorus electricus) (UniProt O42275); experiment: Mixed-type inhibition of electric eel AChE after 15 mins by Lineweaver-Burke plot analysis
Acetylcholinesterase (Electrophorus electricus), sequence (O42275 24-633 limits assumed): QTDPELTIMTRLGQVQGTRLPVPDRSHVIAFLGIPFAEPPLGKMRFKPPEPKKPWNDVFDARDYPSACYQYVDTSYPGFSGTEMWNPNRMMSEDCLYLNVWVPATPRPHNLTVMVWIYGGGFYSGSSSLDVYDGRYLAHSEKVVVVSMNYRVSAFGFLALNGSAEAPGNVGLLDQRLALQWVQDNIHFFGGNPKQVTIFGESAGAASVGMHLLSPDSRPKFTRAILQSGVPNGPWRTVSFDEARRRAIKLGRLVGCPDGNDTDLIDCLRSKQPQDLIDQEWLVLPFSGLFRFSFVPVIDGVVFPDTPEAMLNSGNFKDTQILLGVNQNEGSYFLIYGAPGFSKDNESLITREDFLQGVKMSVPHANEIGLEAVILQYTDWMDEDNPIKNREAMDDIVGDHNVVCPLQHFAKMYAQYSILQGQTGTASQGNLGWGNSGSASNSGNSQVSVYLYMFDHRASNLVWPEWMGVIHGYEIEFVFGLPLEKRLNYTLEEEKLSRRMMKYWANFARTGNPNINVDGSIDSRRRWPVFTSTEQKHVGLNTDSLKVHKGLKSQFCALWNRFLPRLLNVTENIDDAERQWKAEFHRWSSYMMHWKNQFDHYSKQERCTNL

Acetylcholinesterase, sequence (O42275 whole entry): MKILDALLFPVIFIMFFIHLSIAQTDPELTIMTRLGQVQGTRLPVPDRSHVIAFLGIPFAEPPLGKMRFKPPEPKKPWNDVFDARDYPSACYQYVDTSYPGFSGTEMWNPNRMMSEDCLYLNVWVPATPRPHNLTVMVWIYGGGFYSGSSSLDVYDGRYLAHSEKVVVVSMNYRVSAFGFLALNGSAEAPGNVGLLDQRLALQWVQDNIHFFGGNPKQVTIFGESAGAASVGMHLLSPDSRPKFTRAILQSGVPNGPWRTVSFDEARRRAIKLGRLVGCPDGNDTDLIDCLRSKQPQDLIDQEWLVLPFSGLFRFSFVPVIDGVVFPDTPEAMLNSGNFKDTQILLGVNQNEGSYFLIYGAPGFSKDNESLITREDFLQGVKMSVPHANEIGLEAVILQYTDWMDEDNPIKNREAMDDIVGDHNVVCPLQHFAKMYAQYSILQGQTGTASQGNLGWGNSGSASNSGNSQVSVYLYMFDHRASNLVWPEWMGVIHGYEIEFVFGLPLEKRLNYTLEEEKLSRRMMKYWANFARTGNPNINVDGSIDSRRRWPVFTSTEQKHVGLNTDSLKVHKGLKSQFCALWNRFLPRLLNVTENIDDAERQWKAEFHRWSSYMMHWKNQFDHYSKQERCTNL

Work on `COc1ccc2cc3[n+](cc2c1OCCCN1CCCCC1)CCc1cc2c(cc1-3)OCO2` yielded an IC50 (Acetylcholinesterase) of 52 nM.

Work on `COc1ccc2cc3[n+](cc2c1OCCCO)CCc1cc2c(cc1-3)OCO2` yielded an IC50 (Acetylcholinesterase) of 2370 nM.

Work on `COc1ccc2cc3[n+](cc2c1OCCN(C)C)CCc1cc2c(cc1-3)OCO2` yielded an IC50 (Acetylcholinesterase) of 1740 nM.

`COc1ccc2cc3[n+](cc2c1OCCCN1CCOCC1)CCc1cc2c(cc1-3)OCO2` showed an IC50 (Acetylcholinesterase) of 456 nM.

With `COc1ccc2cc3[n+](cc2c1OCCCN1CCCC1)CCc1cc2c(cc1-3)OCO2` the IC50 (Acetylcholinesterase) was 93 nM.

In the case of `COc1ccc2cc3[n+](cc2c1OCCCNC1CCCCC1)CCc1cc2c(cc1-3)OCO2`, the IC50 (Acetylcholinesterase) is reported as 20 nM and the inhibition [1] is reported as “Active”.

`COc1ccc2cc3[n+](cc2c1OCCCN(C)C)CCc1cc2c(cc1-3)OCO2` showed an IC50 (Acetylcholinesterase) of 201 nM.

Work on `COc1ccc2cc3[n+](cc2c1OCCN1CCOCC1)CCc1cc2c(cc1-3)OCO2` yielded an IC50 (Acetylcholinesterase) of 1800 nM.

With `CCCN(CCC)CCCOc1c(OC)ccc2cc3[n+](cc12)CCc1cc2c(cc1-3)OCO2` the IC50 (Acetylcholinesterase) was 310 nM.

With `CCN(CC)CCCOc1c(OC)ccc2cc3[n+](cc12)CCc1cc2c(cc1-3)OCO2` the IC50 (Acetylcholinesterase) was 105 nM.
